According to ChEMBL document CHEMBL4507261, “Data for DCP probe A-192621” (2021):
Active and inactive are the calls of the source. No cut-off for these calls is given here.

Key:
[1] = species: Rattus norvegicus; conditions: Compound concentration 10.0 uM
[2] = target: T1, Endothelin receptor type B (Homo sapiens, UniProt P24530); assay: EDNRB- dependent phosphatidylinositol hydrolysis assay; type: functional
[3] = target: T2, Alpha-1A adrenergic receptor (Homo sapiens) (UniProt P35348); conditions: Compound concentration 10.0 uM
T2 sequence (whole entry): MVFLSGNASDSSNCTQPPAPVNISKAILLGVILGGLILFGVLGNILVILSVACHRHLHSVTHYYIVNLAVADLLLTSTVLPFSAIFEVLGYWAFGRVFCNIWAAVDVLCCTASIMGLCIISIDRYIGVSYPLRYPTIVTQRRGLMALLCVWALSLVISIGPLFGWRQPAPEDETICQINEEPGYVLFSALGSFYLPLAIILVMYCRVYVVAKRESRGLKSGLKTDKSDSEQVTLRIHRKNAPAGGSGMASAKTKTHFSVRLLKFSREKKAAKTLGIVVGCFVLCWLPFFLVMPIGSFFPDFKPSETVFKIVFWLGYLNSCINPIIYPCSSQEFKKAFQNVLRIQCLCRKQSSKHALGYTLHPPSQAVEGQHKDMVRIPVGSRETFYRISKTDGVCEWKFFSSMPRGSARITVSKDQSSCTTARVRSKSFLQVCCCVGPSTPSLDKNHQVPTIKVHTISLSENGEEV

[4] = target: D(4) dopamine receptor (Homo sapiens) (UniProt P21917); conditions: Compound concentration 10.0 uM
Sequence of D(4) dopamine receptor (Homo sapiens) (P21917 whole entry): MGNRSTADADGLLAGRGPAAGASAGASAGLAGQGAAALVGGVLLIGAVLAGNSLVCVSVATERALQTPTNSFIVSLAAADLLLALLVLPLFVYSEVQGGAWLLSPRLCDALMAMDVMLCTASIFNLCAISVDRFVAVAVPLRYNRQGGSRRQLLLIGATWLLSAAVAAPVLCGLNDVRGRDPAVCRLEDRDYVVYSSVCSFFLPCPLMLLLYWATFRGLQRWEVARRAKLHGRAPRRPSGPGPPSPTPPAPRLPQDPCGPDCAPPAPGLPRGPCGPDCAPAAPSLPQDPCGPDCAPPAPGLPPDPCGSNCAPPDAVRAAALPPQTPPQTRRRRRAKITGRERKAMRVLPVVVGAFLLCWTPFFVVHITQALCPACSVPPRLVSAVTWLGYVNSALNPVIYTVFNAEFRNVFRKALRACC

[5] = target: Delta-type opioid receptor (Homo sapiens) (UniProt P41143); conditions: Compound concentration 10.0 uM
Sequence of Delta-type opioid receptor (Homo sapiens) (P41143 whole entry): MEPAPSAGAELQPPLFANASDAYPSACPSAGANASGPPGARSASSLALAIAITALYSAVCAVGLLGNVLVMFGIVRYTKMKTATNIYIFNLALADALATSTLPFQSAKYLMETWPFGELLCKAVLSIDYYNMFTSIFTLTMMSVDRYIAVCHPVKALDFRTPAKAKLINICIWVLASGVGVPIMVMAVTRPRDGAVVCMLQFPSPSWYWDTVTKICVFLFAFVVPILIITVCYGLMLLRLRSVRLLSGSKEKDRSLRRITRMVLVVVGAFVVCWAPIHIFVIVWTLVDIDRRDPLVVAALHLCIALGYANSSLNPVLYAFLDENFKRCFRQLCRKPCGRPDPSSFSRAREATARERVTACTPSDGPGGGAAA

[6] = target: Sodium-dependent serotonin transporter (Homo sapiens) (UniProt P31645); conditions: Compound concentration 10.0 uM
Sequence of Sodium-dependent serotonin transporter (Homo sapiens) (P31645 whole entry, looked up): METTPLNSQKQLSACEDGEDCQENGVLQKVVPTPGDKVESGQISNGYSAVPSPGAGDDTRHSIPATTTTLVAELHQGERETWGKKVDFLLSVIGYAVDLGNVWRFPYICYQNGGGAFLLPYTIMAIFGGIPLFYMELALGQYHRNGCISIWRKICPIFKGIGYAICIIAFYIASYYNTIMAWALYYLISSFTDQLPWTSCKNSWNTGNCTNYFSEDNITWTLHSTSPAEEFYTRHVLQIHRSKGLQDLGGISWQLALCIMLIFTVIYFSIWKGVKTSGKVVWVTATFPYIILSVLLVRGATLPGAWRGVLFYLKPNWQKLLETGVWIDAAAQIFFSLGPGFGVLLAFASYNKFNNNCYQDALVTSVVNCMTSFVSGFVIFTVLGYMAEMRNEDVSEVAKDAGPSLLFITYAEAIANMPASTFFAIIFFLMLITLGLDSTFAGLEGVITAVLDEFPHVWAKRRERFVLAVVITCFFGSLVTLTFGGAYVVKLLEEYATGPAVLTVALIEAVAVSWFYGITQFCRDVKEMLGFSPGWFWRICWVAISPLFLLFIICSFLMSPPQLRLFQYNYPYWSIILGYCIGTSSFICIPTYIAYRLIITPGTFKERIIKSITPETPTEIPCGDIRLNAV

[7] = target: T3, Muscarinic acetylcholine receptor M4 (Homo sapiens) (UniProt P08173); conditions: Compound concentration 10.0 uM
T3 sequence (whole entry): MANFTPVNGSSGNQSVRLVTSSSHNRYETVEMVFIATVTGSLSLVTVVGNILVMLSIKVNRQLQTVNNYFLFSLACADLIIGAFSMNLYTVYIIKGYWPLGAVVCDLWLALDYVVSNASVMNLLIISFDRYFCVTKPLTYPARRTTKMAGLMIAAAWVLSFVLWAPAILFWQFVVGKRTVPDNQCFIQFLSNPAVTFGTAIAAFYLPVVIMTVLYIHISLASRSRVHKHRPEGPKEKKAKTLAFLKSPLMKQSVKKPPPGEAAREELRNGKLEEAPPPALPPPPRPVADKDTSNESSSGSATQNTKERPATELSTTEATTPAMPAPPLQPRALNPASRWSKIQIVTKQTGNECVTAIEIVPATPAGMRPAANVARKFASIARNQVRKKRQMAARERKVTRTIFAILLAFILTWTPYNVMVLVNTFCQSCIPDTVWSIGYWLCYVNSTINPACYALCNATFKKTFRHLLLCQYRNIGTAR

[8] = target: D(1A) dopamine receptor (Homo sapiens) (UniProt P21728); conditions: Compound concentration 10.0 uM
Sequence of D(1A) dopamine receptor (Homo sapiens) (P21728 whole entry): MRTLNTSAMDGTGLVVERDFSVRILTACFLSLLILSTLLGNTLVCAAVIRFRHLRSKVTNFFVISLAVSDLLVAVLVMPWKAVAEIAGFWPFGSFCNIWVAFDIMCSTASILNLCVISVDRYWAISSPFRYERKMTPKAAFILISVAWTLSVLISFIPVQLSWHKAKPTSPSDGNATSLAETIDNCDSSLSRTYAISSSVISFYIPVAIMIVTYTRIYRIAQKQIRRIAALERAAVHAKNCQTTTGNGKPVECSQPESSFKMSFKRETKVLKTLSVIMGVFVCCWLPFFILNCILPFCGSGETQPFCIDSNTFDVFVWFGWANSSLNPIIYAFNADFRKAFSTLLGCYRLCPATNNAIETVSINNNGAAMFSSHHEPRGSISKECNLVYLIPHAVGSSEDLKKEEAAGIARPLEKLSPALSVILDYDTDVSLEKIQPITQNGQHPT

[9] = target: T1, Endothelin receptor type B; assay: Eurofins cellular functional assay - Antagonist (EDNRB)
[10] = target: Histamine H2 receptor (Homo sapiens) (UniProt P25021); conditions: Compound concentration 10.0 uM
Sequence of Histamine H2 receptor (Homo sapiens) (P25021 whole entry): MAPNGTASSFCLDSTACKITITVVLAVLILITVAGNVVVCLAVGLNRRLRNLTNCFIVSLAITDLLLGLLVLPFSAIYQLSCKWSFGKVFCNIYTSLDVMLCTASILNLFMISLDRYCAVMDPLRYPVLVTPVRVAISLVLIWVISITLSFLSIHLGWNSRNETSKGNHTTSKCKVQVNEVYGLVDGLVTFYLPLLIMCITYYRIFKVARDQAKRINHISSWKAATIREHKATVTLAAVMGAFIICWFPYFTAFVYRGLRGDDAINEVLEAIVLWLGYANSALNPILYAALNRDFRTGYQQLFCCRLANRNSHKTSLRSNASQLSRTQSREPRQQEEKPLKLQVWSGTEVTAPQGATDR

[11] = target: T4, 5-hydroxytryptamine receptor 2C (Homo sapiens) (UniProt P28335); conditions: Compound concentration 10.0 uM
T4 sequence (whole entry): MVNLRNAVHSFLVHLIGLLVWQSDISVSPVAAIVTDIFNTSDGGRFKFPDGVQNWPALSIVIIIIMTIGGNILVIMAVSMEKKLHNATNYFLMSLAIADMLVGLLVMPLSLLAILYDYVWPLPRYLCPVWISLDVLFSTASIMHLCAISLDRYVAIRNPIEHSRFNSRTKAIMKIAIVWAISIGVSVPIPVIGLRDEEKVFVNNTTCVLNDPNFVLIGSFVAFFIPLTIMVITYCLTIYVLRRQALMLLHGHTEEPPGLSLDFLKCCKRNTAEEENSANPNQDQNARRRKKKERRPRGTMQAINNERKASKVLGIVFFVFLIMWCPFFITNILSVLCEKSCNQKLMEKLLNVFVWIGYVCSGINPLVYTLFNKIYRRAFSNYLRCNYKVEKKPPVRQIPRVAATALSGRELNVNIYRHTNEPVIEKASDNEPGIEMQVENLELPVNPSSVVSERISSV

[12] = target: T5, Alpha-2A adrenergic receptor (Homo sapiens) (UniProt P08913); conditions: Compound concentration 10.0 uM
T5 sequence (whole entry): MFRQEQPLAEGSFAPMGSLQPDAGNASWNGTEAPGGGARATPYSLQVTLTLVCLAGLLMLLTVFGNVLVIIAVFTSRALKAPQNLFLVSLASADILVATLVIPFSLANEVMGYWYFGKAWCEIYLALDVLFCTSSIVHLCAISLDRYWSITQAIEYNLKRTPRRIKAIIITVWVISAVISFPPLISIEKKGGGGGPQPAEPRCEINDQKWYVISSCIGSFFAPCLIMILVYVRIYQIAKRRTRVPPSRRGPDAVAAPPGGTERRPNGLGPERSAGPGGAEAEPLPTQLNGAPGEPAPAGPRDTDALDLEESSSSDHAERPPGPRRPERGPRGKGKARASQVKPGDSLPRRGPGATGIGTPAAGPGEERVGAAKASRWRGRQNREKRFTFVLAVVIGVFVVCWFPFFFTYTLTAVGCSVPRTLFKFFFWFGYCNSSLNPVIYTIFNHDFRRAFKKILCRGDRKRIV

[13] = target: Beta-3 adrenergic receptor (Homo sapiens) (UniProt P13945); conditions: Compound concentration 10.0 uM
Sequence of Beta-3 adrenergic receptor (Homo sapiens) (P13945 whole entry, looked up): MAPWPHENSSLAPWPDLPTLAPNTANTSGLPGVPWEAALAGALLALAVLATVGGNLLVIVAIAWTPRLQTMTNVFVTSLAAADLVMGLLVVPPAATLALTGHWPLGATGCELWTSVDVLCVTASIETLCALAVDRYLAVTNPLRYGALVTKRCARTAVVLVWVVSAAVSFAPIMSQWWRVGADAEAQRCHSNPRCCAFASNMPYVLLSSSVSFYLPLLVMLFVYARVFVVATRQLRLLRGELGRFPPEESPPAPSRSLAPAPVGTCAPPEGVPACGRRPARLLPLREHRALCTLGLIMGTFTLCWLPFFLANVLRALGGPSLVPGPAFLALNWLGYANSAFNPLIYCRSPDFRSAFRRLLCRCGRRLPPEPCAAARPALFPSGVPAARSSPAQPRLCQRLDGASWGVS

[14] = target: 5-hydroxytryptamine receptor 7 (Homo sapiens) (UniProt P34969); conditions: Compound concentration 10.0 uM
Sequence of 5-hydroxytryptamine receptor 7 (Homo sapiens) (P34969 whole entry): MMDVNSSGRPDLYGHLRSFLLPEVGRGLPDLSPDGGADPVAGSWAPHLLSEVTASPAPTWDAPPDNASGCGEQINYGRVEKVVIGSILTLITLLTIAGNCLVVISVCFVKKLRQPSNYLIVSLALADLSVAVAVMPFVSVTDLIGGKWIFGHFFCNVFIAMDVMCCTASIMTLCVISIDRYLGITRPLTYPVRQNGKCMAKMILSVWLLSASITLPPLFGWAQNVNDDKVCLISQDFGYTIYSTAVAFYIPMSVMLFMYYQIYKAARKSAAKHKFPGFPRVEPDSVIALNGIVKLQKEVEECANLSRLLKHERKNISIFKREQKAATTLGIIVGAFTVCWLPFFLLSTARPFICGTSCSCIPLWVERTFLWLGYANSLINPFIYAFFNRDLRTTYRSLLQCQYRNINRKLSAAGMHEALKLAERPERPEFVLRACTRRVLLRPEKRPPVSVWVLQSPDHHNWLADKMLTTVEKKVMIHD

[15] = target: D(3) dopamine receptor (Homo sapiens) (UniProt P35462); conditions: Compound concentration 10.0 uM
Sequence of D(3) dopamine receptor (Homo sapiens) (P35462 whole entry): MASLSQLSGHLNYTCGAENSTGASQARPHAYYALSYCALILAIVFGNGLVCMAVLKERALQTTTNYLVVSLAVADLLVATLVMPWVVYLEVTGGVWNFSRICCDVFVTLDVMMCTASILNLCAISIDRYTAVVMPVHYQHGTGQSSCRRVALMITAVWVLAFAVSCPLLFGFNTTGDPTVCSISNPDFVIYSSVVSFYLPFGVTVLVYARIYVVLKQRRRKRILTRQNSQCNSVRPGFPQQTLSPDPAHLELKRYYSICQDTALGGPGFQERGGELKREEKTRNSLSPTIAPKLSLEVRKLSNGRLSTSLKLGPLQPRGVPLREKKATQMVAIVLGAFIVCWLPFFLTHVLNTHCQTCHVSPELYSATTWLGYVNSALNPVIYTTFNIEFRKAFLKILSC

T1 sequence (P24530 whole entry): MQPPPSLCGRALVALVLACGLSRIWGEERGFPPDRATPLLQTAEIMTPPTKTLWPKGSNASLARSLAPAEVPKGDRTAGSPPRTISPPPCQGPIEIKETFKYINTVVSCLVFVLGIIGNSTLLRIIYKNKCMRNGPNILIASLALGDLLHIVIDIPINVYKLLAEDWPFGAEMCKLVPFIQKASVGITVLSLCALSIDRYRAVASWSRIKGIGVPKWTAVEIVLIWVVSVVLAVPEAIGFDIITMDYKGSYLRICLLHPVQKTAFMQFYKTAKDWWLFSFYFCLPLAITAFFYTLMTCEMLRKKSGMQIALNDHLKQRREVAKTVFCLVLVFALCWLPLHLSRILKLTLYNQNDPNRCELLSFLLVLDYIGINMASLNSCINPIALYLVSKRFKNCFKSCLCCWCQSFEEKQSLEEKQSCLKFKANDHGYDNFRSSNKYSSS

CCCOc1ccc([C@H]2[C@H](C(=O)O)[C@@H](c3ccc4c(c3)OCO4)CN2CC(=O)Nc2c(CC)cccc2CC)cc1 [A-192621]
inhibition [1]: 16.5%
IC50 [2]: 0.8 nM (active)
inhibition [3]: -9.09%
inhibition [4]: -3.59%
inhibition [5]: 9.89%
inhibition [6]: 10.6%
inhibition [7]: 12.5%
inhibition [8]: 17.3%
IC50 [9]: 6.5 nM (active)
inhibition [10]: 5.77%
inhibition [11]: -5.44%
inhibition [12]: 9.55%
inhibition [13]: 13.3%
inhibition [14]: -3.72%
inhibition [15]: -5.43%
